From US20230159532A1, “PARATHYROID HORMONE (PTH) RECEPTOR ANTAGONISTS AND USES THEREOF” (Crinetics Pharmaceuticals, Inc., priority 2021, published 2023)
pKi: −log10 of the molar value.

biological target: T1, human PTHR1 receptor (Homo sapiens, UniProt Q03431); assay: Competitive antagonist binding assay for hPTH-R1 (radioactive competition binding, SPA beads); settings: human PTHR1 membranes, [125I]-[Nle8,18,Tyr34]-PTH(1-34) 0.2 nM, 90 minutes at room temperature; read-out: hPTHR1 Ki
T1 construct: purchased Eurofins HTS030M
T1 sequence (Q03431 27-593): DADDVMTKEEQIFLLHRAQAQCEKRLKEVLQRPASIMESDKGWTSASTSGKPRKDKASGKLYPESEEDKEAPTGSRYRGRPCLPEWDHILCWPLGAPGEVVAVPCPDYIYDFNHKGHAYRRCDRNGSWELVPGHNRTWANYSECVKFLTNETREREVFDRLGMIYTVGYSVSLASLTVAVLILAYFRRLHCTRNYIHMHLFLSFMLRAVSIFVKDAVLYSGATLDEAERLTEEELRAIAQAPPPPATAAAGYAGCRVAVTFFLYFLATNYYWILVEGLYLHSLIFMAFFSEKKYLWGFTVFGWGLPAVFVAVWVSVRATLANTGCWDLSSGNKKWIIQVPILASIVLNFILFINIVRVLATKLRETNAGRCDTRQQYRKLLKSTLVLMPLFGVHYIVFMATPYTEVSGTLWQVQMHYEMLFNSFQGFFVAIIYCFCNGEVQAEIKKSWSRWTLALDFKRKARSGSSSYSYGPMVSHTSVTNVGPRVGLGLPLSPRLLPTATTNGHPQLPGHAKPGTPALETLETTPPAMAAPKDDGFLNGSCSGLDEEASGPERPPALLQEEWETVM
How it was run: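 Human PTHR1 membranes on SPA beads incubated 90 min at room temperature with compound (typically 0-10,000 nM final) and 0.2 nM [125I]-[Nle8,18,Tyr34]-PTH(1-34) in HEPES buffer with MgCl2, CaCl2, BSA, Triton X-100 and protease inhibitors, pH 7.4. Scintillation signal read; Ki values derived.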

| pKi | Compound |
| --- | --- |
| > 7.00 | CCN1C(=O)N(c2c(F)cc(NCCNCCO)cc2F)c2cc(Cl)ccc2-c2cc(C(F)(F)F)cnc21 [1-56, 13-chloro-10-[2,6-difluoro-4-({2-[(2-hydroxyethyl)amino]ethyl}amino)phenyl]-8-ethyl-4-(trifluoromethyl)-6,8,10-triazatricyclo[9.4.0.0^2,7]pentadeca-1(11),2(7),3,5,12,14-hexaen-9-one] |
| > 7.00 | CCN1C(=O)N(c2c(F)cc(NCCNC)cc2F)c2cc(Cl)ccc2-c2cc(C(F)(F)F)cnc21 [1-57, 13-chloro-10-(2,6-difluoro-4-{[2-(methylamino)ethyl]amino}phenyl)-8-ethyl-4-(trifluoromethyl)-6,8,10-triazatricyclo[9.4.0.0^2,7]pentadeca-1(11),2(7),3,5,12,14-hexaen-9-one] |
| > 7.00 | CCN1C(=O)N(c2c(F)cc(NCCNCCCC(=O)O)cc2F)c2cc(C#N)ccc2-c2cc(Cl)cnc21 [1-58, 4-({2-[(4-{4-chloro-13-cyano-8-ethyl-9-oxo-6,8,10-triazatricyclo[9.4.0.0^2,7]pentadeca-1(11),2(7),3,5,12,14-hexaen-10-yl}-3,5-difluorophenyl)amino]ethyl}amino)butanoic Acid] |
| > 7.00 | CCN1C(=O)N(c2c(F)cc(NCCNCCF)cc2F)c2cc(Cl)ccc2-c2cc(Cl)cnc21 [1-59, 4,13-dichloro-10-[2,6-difluoro-4-({2-[(2-fluoroethyl)amino]ethyl}amino)phenyl]-8-ethyl-6,8,10-triazatricyclo[9.4.0.0^2,7]pentadeca-1(11),2(7),3,5,12,14-hexaen-9-one] |
| > 7.00 | CCN1C(=O)N(c2c(F)cc(NCCNCCO)cc2F)c2cc(Cl)cc(F)c2-c2cc(Cl)cnc21 [1-60, 4,13-dichloro-10-[2,6-difluoro-4-({2-[(2-hydroxyethyl)amino]ethyl}amino)phenyl]-8-ethyl-15-fluoro-6,8,10-triazatricyclo[9.4.0.0^2,7]pentadeca-1(11),2(7),3,5,12,14-hexaen-9-one] |
| > 7.00 | CCN1C(=O)N(c2c(F)cc(NCCNC)cc2F)c2cc(Cl)cc(F)c2-c2cc(Cl)cnc21 [1-61, 4,13-dichloro-10-(2,6-difluoro-4-{[2-(methylamino)ethyl]amino}phenyl)-8-ethyl-15-fluoro-6,8,10-triazatricyclo[9.4.0.0^2,7]pentadeca-1(11),2(7),3,5,12,14-hexaen-9-one] |
| > 7.00 | CCN1C(=O)N(c2c(F)cc(NCCNC)cc2F)c2cc(C#N)cc(C)c2-c2cc(F)cnc21 [1-62, 10-(2,6-difluoro-4-{[2-(methylamino)ethyl]amino}phenyl)-8-ethyl-4-fluoro-15-methyl-9-oxo-6,8,10-triazatricyclo[9.4.0.0^2,7]pentadeca-1(11),2(7),3,5,12,14-hexaene-13-carbonitrile] |
| > 7.00 | CCN1C(=O)N(c2c(F)cc(NCCNCCO)cc2F)c2cc(C#N)cc(C)c2-c2cc(F)cnc21 [1-63, 10-[2,6-difluoro-4-({2-[(2-hydroxyethyl)amino]ethyl}amino)phenyl]-8-ethyl-4-fluoro-15-methyl-9-oxo-6,8,10-triazatricyclo[9.4.0.0^2,7]pentadeca-1(11),2(7),3,5,12,14-hexaene-13-carbonitrile] |
| > 7.00 | CCN1C(=O)N(c2c(F)cc(NCCNCCCC(=O)O)cc2F)c2cc(Cl)cc(C)c2-c2cc(F)cnc21 [1-64, 4-({2-[(4-{13-chloro-8-ethyl-4-fluoro-15-methyl-9-oxo-6,8,10-triazatricyclo[9.4.0.0^2,7]pentadeca-1(11),2(7),3,5,12,14-hexaen-10-yl}-3,5-difluorophenyl)amino]ethyl}amino)butanoic acid] |
| > 7.00 | CCN1C(=O)N(c2c(F)cc(N3CC[C@@H](N)C3)cc2F)c2cc(Cl)cc(C)c2-c2cc(F)cnc21 [1-65, 10-{4-[(3R)-3-aminopyrrolidin-1-yl]-2,6-difluorophenyl}-13-chloro-8-ethyl-4-fluoro-15-methyl-6,8,10-triazatricyclo[9.4.0.0^2,7]pentadeca-1(11),2(7),3,5,12,14-hexaen-9-one] |
| > 7.00 | CCN1C(=O)N(c2c(F)cc(NCCNC)cc2F)c2cc(C(F)(F)F)ccc2-c2cc(F)cnc21 [1-66, 10-(2,6-difluoro-4-{[2-(methylamino)ethyl]amino}phenyl)-8-ethyl-4-fluoro-13-(trifluoromethyl)-6,8,10-triazatricyclo[9.4.0.0^2,7]pentadeca-1(11),2(7),3,5,12,14-hexaen-9-one] |
| > 7.00 | CCN1C(=O)N(c2c(F)cc(NCCNCCO)cc2F)c2cc(C(F)(F)F)ccc2-c2cc(F)cnc21 [1-67, 10-[2,6-difluoro-4-({2-[(2-hydroxyethyl)amino]ethyl}amino)phenyl]-8-ethyl-4-fluoro-13-(trifluoromethyl)-6,8,10-triazatricyclo[9.4.0.0^2,7]pentadeca-1(11),2(7),3,5,12,14-hexaen-9-one] |
| > 7.00 | CCN1C(=O)N(c2c(F)cc(NCCNCCCC(=O)O)cc2F)c2cc(C#N)cc(C)c2-c2cc(F)cnc21 [1-68, 4-({2-[(4-{13-cyano-8-ethyl-4-fluoro-15-methyl-9-oxo-6,8,10-triazatricyclo[9.4.0.0^2,7]pentadeca-1(11),2(7),3,5,12,14-hexaen-10-yl}-3,5-difluorophenyl)amino]ethyl}amino)butanoic acid] |
| > 7.00 | CCN1C(=O)N(c2c(F)cc(NCCNCCCC(=O)O)cc2F)c2cc(C(F)(F)F)ccc2-c2cc(F)cnc21 [1-69, 4-{[2-({4-[8-ethyl-4-fluoro-9-oxo-13-(trifluoromethyl)-6,8,10-triazatricyclo[9.4.0.0^2,7]pentadeca-1(11),2(7),3,5,12,14-hexaen-10-yl]-3,5-difluorophenyl}amino)ethyl]amino}butanoic acid] |
| > 7.00 | CCN1C(=O)N(c2c(F)cc(NCCN(C)CCCC(=O)O)cc2F)c2cc(Cl)ccc2-c2cc(Cl)cnc21 [1-70, 4-({2-[(4-{4,13-dichloro-8-ethyl-9-oxo-6,8,10-triazatricyclo[9.4.0.0^2,7]pentadeca-1(11),2(7),3,5,12,14-hexaen-10-yl}-3,5-difluorophenyl)amino]ethyl}(methyl)amino)butanoic acid] |
| > 7.00 | CCN1C(=O)N(c2c(F)cc(N[C@@H](C)CNCCO)cc2F)c2cc(Cl)ccc2-c2cc(Cl)cnc21 [1-71, 4,13-dichloro-10-(2,6-difluoro-4-{[(2S)-1-[(2-hydroxyethyl)amino]propan-2-yl]amino}phenyl)-8-ethyl-6,8,10-triazatricyclo[9.4.0.0^2,7]pentadeca-1(11),2(7),3,5,12,14-hexaen-9-one] |
| > 7.00 | CCN1C(=O)N(c2c(F)cc(NCCNCCC(=O)O)cc2F)c2cc(Cl)ccc2-c2cc(Cl)cnc21 [1-72, 3-({2-[(4-{4,13-dichloro-8-ethyl-9-oxo-6,8,10-triazatricyclo[9.4.0.0^2,7]pentadeca-1(11),2(7),3,5,12,14-hexaen-10-yl}-3,5-difluorophenyl)amino]ethyl}amino)propanoic acid] |
| > 7.00 | CCN1C(=O)N(c2c(F)cc(NCCN(C)CCO)cc2F)c2cc(Cl)ccc2-c2cc(Cl)cnc21 [1-73, 4,13-dichloro-10-[2,6-difluoro-4-({2-[(2-hydroxyethyl)(methyl)amino]ethyl}amino)phenyl]-8-ethyl-6,8,10-triazatricyclo[9.4.0.0^2,7]pentadeca-1(11),2(7),3,5,12,14-hexaen-9-one] |
| > 7.00 | CCN1C(=O)N(c2c(F)cc(NCCNCCOC)cc2F)c2cc(Cl)ccc2-c2cc(Cl)cnc21 [1-74, 4,13-dichloro-10-[2,6-difluoro-4-({2-[(2-methoxyethyl)amino]ethyl}amino)phenyl]-8-ethyl-6,8,10-triazatricyclo[9.4.0.0^2,7]pentadeca-1(11),2(7),3,5,12,14-hexaen-9-one] |
| > 7.00 | CNCCNc1cc(F)c(N2C(=O)N(C)c3ncc(F)cc3-c3c(C)cc(Cl)cc32)c(F)c1 [1-75, 13-chloro-10-(2,6-difluoro-4-{[2-(methylamino)ethyl]amino}phenyl)-4-fluoro-8,15-dimethyl-6,8,10-triazatricyclo[9.4.0.0^2,7]pentadeca-1(11),2(7),3,5,12,14-hexaen-9-one] |
| > 7.00 | Cc1cc(Cl)cc2c1-c1cc(F)cnc1N(C)C(=O)N2c1c(F)cc(NCCNCCO)cc1F [1-76, 13-chloro-10-[2,6-difluoro-4-({2-[(2-hydroxyethyl)amino]ethyl}amino)phenyl]-4-fluoro-8,15-dimethyl-6,8,10-triazatricyclo[9.4.0.0^2,7]pentadeca-1(11),2(7),3,5,12,14-hexaen-9-one] |
| > 7.00 | Cc1cc(Cl)cc2c1-c1cc(F)cnc1N(C)C(=O)N2c1c(F)cc(NCCNCCCC(=O)O)cc1F [1-77, 4-({2-[(4-{13-chloro-4-fluoro-8,15-dimethyl-9-oxo-6,8,10-triazatricyclo[9.4.0.0^2,7]pentadeca-1(11),2(7),3,5,12,14-hexaen-10-yl}-3,5-difluorophenyl)amino]ethyl}amino)butanoic acid] |
